Laboratory results published in ChEMBL document CHEMBL3822378, “Click-based synthesis and antitubercular evaluation of dibenzofuran tethered thiazolyl-1,2,3-triazolyl acetamides” (Bioorg Med Chem Lett, 2016).
In brackets after ≈: the same amount, converted by molar mass.

Key:
[1] = test system: Mycobacterium tuberculosis; test: Antitubercular activity against Mycobacterium tuberculosis H37Rv ATCC 27294 after 28 days by two-fold agar dilution method; format: functional; details: H37Rv ATCC 27294, 672 h
[2] = Cytotoxicity against mouse RAW264.7 cells assessed as growth inhibition at 50 ug/ml after 72 hrs by MTT assay; format: cell-based; details: read-out: GI
[3] = test system: Mycobacterium tuberculosis; test: Antitubercular activity against Mycobacterium tuberculosis H37Rv by microplate alamar blue assay; format: functional
[4] = test system: Staphylococcus epidermidis; test: Antibacterial activity against Staphylococcus epidermidis 2D866 by two-fold agar dilution method; format: functional

| Compound | MIC [1] [µg/mL] | inhibition at 72 h, 50 ug/ml [2] [%] | also measured |
| --- | --- | --- | --- |
| NNC(=O)c1ccncc1 [ISONIAZID] | 0.1 (≈ 0.729 µM) | – | – |
| CCCCCc1ccc(-c2cn(CC(=O)Nc3nc(-c4ccc5oc6ccccc6c5c4)cs3)nn2)cc1 | > 50 | – | – |
| O=C(Cn1cc(-c2ccc(-c3ccccc3)cc2)nn1)Nc1nc(-c2ccc3oc4ccccc4c3c2)cs1 | > 50 | – | – |
| CCCCCCc1cn(CC(=O)Nc2nc(-c3ccc4oc5ccccc5c4c3)cs2)nn1 | 1.56 (≈ 3.39 µM) | 28.6 | – |
| NC(=O)c1cnccn1 [PYRAZINAMIDE] | 50 (≈ 406 µM) | – | – |
| Cc1ccc(-c2cn(CC(=O)Nc3nc(-c4ccc5oc6ccccc6c5c4)cs3)nn2)cc1 | 50 (≈ 107 µM) | – | – |
| CC(=O)C1=C(O)C=C2Oc3c(C(C)=O)c(O)c(C)c(O)c3C2(C)C1=O (stereo not drawn) | – | – | MIC [3]: 12.5 µg/mL (≈ 36.3 µM) |
| O=C(Cn1cc(-c2cc(C(F)(F)F)cc(C(F)(F)F)c2)nn1)Nc1nc(-c2ccc3oc4ccccc4c3c2)cs1 | 25 (≈ 42.6 µM) | – | – |
| O=C(Cn1cc(CCCO)nn1)Nc1nc(-c2ccc3oc4ccccc4c3c2)cs1 | 25 (≈ 57.7 µM) | – | – |
| COc1cccc(-c2cn(CC(=O)Nc3nc(-c4ccc5oc6ccccc6c5c4)cs3)nn2)c1 | 6.25 (≈ 13 µM) | 18.1 | – |
| CC[C@@H](CO)NCCN[C@@H](CC)CO [ETHAMBUTOL] | 3.13 (≈ 15.3 µM) | – | – |
| O=C(Cn1cc(C2(O)CCCC2)nn1)Nc1nc(-c2ccc3oc4ccccc4c3c2)cs1 | 12.5 (≈ 27.2 µM) | 22.2 | – |
| CCCc1cn(CC(=O)Nc2nc(-c3ccc4oc5ccccc5c4c3)cs2)nn1 | 50 (≈ 120 µM) | – | – |
| CCCCCC(=O)c1c(OC)c(Cl)c2oc3c(Cl)c(OC)c(Cl)c(O)c3c2c1O | – | – | MIC [4]: 0.39 µg/mL (≈ 0.845 µM) |
| CCCCCCCCCCCCc1cn(CC(=O)Nc2nc(-c3ccc4oc5ccccc5c4c3)cs2)nn1 | 3.12 (≈ 5.74 µM) | 26.5 | – |
| O=C(Cn1cc(CCc2ccccc2)nn1)Nc1nc(-c2ccc3oc4ccccc4c3c2)cs1 | > 50 | – | – |
| O=C(Cn1cc(C2CC2)nn1)Nc1nc(-c2ccc3oc4ccccc4c3c2)cs1 | 50 (≈ 120 µM) | – | – |
| CCCCCc1cn(CC(=O)Nc2nc(-c3ccc4oc5ccccc5c4c3)cs2)nn1 | 12.5 (≈ 28.1 µM) | 20.4 | – |
| O=C(Cn1cc(-c2ccccc2)nn1)Nc1nc(-c2ccc3oc4ccccc4c3c2)cs1 | 3.12 (≈ 6.91 µM) | 20.4 | – |
| O=C(Cn1cc(-c2ccc(F)cc2F)nn1)Nc1nc(-c2ccc3oc4ccccc4c3c2)cs1 | 25 (≈ 51.3 µM) | – | – |
| CC(C)(C)c1ccc(-c2cn(CC(=O)Nc3nc(-c4ccc5oc6ccccc6c5c4)cs3)nn2)cc1 | 12.5 (≈ 24.6 µM) | 30.2 | – |
